Test system: methicillin resistant S. aureus from Stanford University Hospital (MRSA-SU)
Assay: Matrix system: oxacillin plus β-lactamase inhibitor, MRSA-SU
Format: cell-based
Method: To each well of a 96 well microtiter plate was added 47.5 μl of MHB. A volume of 2.5 μl of each dilution of oxacillin was then transferred to appropriate wells containing the medium. All wells, except the sterility control wells, were then inoculated with 50 μl of a diluted cell suspension to give a final volume of 100 μl and a final cell density of 5×10^4 CFU/well. The volume in the sterility control wells was adjusted to 100 μl with MHB. A sterile pipette tip was used to mix the contents of each well (one tip was used going from the low to the high concentration in the same column). The microtiter plates were covered with the lids and were placed in large Stratagene Big Blue plates (Cat. # 400041). Four large kimwipes moistened with tap water were placed near the edges of the Stratagene plates to prevent evaporation of the medium. The microtiter plates were incubated for at least 24 hours at 35° C. The plates were then evaluated for growth in each well. Controls included: medium sterility and negative control (medium and bacteria only).
A numerical code was used to evaluate the extent of growth as indicated below. • 0: absence of growth • 1: barely visible (faint) growth • 2: fair growth but less than the negative solvent control • 3: growth is equivalent to the negative solvent control.
The lowest dose at which no visible growth is observed was determined to be the MIC value.
The effect of the four compounds of the present invention on oxacillin resistance of the MRSA strains was determined using a matrix system. The β-lactamase inhibitors were tested at 5 doses against up to eleven concentrations of oxacillin. […] A 96-well microtiter plate was used for the matrix system. The procedure was identical to that described above for the MIC determination, with the exception that both oxacillin and one each of the β-lactamase inhibitors was added, 2.5 μl each, to the wells prior to addition of the test organisms.
Matrix Study:Oxacillin and Compound FL201 with MRSA-SU
Matrix Study: Oxacillin and Compound FL202 with MRSA-SU

Structure (SMILES): O=C(OCc1ccccc1)c1cc(B(O)O)cc([N+](=O)[O-])c1 [Compound F1201]
- MIC (oxacillin) (Table 17, in presence of F1201 2 μg/ml): 64 µg/mL
- MIC (oxacillin) (Table 17, in presence of F1201 4 μg/ml): 16 µg/mL
- MIC (oxacillin) (Table 17, in presence of F1201 8 μg/ml): 0.5 µg/mL
- MIC (oxacillin) (Table 17, in presence of F1201 16 μg/ml): <0.064 µg/mL
- growth score (Table 17, oxacillin 0, F1201 2 μg/ml): 3
- growth score (Table 17, oxacillin 0, F1201 4 μg/ml): 2
- growth score (Table 17, oxacillin 0, F1201 8 μg/ml): 2
- growth score (Table 17, oxacillin 0, F1201 16 μg/ml): 1
- growth score (Table 17, oxacillin 0, F1201 32 μg/ml): 0
- growth score (Table 17, oxacillin 0.064 μg/ml + F1201 2 μg/ml): 2
- growth score (Table 17, oxacillin 0.064 μg/ml + F1201 4 μg/ml): 2
- growth score (Table 17, oxacillin 0.064 μg/ml + F1201 8 μg/ml): 1
- growth score (Table 17, oxacillin 0.064 μg/ml + F1201 16 μg/ml): 0
- growth score (Table 17, oxacillin 0.064 μg/ml + F1201 32 μg/ml): 0
- growth score (Table 17, oxacillin 0.125 μg/ml + F1201 2 μg/ml): 2
- growth score (Table 17, oxacillin 0.125 μg/ml + F1201 4 μg/ml): 2
- growth score (Table 17, oxacillin 0.125 μg/ml + F1201 8 μg/ml): 1
- growth score (Table 17, oxacillin 0.125 μg/ml + F1201 16 μg/ml): 0
- growth score (Table 17, oxacillin 0.125 μg/ml + F1201 32 μg/ml): 0
- growth score (Table 17, oxacillin 0.25 μg/ml + F1201 2 μg/ml): 2
- growth score (Table 17, oxacillin 0.25 μg/ml + F1201 4 μg/ml): 1
- growth score (Table 17, oxacillin 0.25 μg/ml + F1201 8 μg/ml): 1
- growth score (Table 17, oxacillin 0.25 μg/ml + F1201 16 μg/ml): 0
- growth score (Table 17, oxacillin 0.25 μg/ml + F1201 32 μg/ml): 0
- growth score (Table 17, oxacillin 0.5 μg/ml + F1201 2 μg/ml): 2
- growth score (Table 17, oxacillin 0.5 μg/ml + F1201 4 μg/ml): 1
- growth score (Table 17, oxacillin 0.5 μg/ml + F1201 8 μg/ml): 0
- growth score (Table 17, oxacillin 0.5 μg/ml + F1201 16 μg/ml): 0
- growth score (Table 17, oxacillin 0.5 μg/ml + F1201 32 μg/ml): 0
- growth score (Table 17, oxacillin 1 μg/ml + F1201 2 μg/ml): 1
- growth score (Table 17, oxacillin 1 μg/ml + F1201 4 μg/ml): 1
- growth score (Table 17, oxacillin 1 μg/ml + F1201 8 μg/ml): 0
- growth score (Table 17, oxacillin 1 μg/ml + F1201 16 μg/ml): 0
- growth score (Table 17, oxacillin 1 μg/ml + F1201 32 μg/ml): 0
- growth score (Table 17, oxacillin 2 μg/ml + F1201 2 μg/ml): 1
- growth score (Table 17, oxacillin 2 μg/ml + F1201 4 μg/ml): 1
- growth score (Table 17, oxacillin 2 μg/ml + F1201 8 μg/ml): 0
- growth score (Table 17, oxacillin 2 μg/ml + F1201 16 μg/ml): 0
- growth score (Table 17, oxacillin 2 μg/ml + F1201 32 μg/ml): 0
- growth score (Table 17, oxacillin 4 μg/ml + F1201 2 μg/ml): 1
- growth score (Table 17, oxacillin 4 μg/ml + F1201 4 μg/ml): 1
- growth score (Table 17, oxacillin 4 μg/ml + F1201 8 μg/ml): 0
- growth score (Table 17, oxacillin 4 μg/ml + F1201 16 μg/ml): 0
- growth score (Table 17, oxacillin 4 μg/ml + F1201 32 μg/ml): 0
- growth score (Table 17, oxacillin 16 μg/ml + F1201 2 μg/ml): 1
- growth score (Table 17, oxacillin 16 μg/ml + F1201 4 μg/ml): 0
- growth score (Table 17, oxacillin 16 μg/ml + F1201 8 μg/ml): 0
- growth score (Table 17, oxacillin 16 μg/ml + F1201 16 μg/ml): 0
- growth score (Table 17, oxacillin 16 μg/ml + F1201 32 μg/ml): 0
- growth score (Table 17, oxacillin 64 μg/ml + F1201 2 μg/ml): 0
- growth score (Table 17, oxacillin 64 μg/ml + F1201 4 μg/ml): 0
- growth score (Table 17, oxacillin 64 μg/ml + F1201 8 μg/ml): 0
- growth score (Table 17, oxacillin 64 μg/ml + F1201 16 μg/ml): 0
- growth score (Table 17, oxacillin 64 μg/ml + F1201 32 μg/ml): 0
- growth score (Table 17, oxacillin 128 μg/ml + F1201 2 μg/ml): 0
- growth score (Table 17, oxacillin 128 μg/ml + F1201 4 μg/ml): 0
- growth score (Table 17, oxacillin 128 μg/ml + F1201 8 μg/ml): 0
- growth score (Table 17, oxacillin 128 μg/ml + F1201 16 μg/ml): 0
- growth score (Table 17, oxacillin 128 μg/ml + F1201 32 μg/ml): 0
- growth score (Table 17, oxacillin 256 μg/ml + F1201 2 μg/ml): 0
- growth score (Table 17, oxacillin 256 μg/ml + F1201 4 μg/ml): 0
- growth score (Table 17, oxacillin 256 μg/ml + F1201 8 μg/ml): 0
- growth score (Table 17, oxacillin 256 μg/ml + F1201 16 μg/ml): 0
- growth score (Table 17, oxacillin 256 μg/ml + F1201 32 μg/ml): 0
